Data published in patent US8592404B2, “Derivatives of porphyrin, particularly chlorins and/or bacteriochlorins, and uses thereof in photodynamic therapy” (Universidade de Coimbra, priority 2004, dated 2013).
Like-named read-outs stand apart in the source and are kept apart here.

Columns and labels:
[1] = deuterated water, 7.4 pH; cited from earlier work
[2] = Fluorescence quantum yield; format: physicochemical
[3] = Lifetime of the triplet state in aqueous solution; format: physicochemical
[4] = Quantum yield of the formation of singlet oxygen (phosphorescence at 1270 nm versus reference photosensitizer TPPS); format: physicochemical; settings: deuterated aqueous solution
From the text: According to the present invention, the reference photosensitizer used in meso-tetrakis(3-sulfophenyl)porphyrin (TPPS) whereof the value for the quantum yield of the formation of singlet oxygen in deuterated water is 0.64 at 7.4 pH (photochem. Photobiol, 70: 391, 1999).

[5] = Lifetime of singlet oxygen; format: physicochemical; settings: in deuterated water

Compound	Quantum yield of the formation of singlet oxygen [1]	Fluorescence quantum yield [2]	Lifetime of the triplet state ([3]; air-saturated aqueous solution) [μs]	Lifetime of the triplet state ([3]; nitrogen-saturated aqueous solution) [μs]	Quantum yield of the formation of singlet oxygen [4]	Lifetime of singlet oxygen [5] [μs]
O=S(=O)(O)c1cccc(-c2c3nc(c(-c4cccc(S(=O)(=O)O)c4)c4ccc([nH]4)c(-c4cccc(S(=O)(=O)O)c4)c4nc(c(-c5cccc(S(=O)(=O)O)c5)c5ccc2[nH]5)C=C4)C=C3)c1 [TPPS, meso-tetrakis(3-sulfophenyl)porphyrin]	0.64	–	–	–	–	–
bacteriochlorin	–	0.013	3.88	235	greater than 30%	65
